# Active and inactive are the calls of the source. The calls are words filed in the database; no cut-off is given here.
# Assays:
# P388 [1] = assay: Tested for in vivo antileukemic activity of compound against P388 at 12.5 mg/kg dose; NA means Not Active; assay type: functional, organism-based; set-up: dose 12.5 mg/kg; conditions: Mus musculus
# [2] = Tested for in vitro cytotoxic potency of compound in 9KB assay; assay type: cell-based; conditions: human, KB (9KB) cells; read-out: ED50 (the source's name)
# P388 [3] = assay: Tested for in vivo antileukemic activity of compound against P388 at 50 mg/kg dose; NA means Not Active; assay type: functional, organism-based; set-up: dose 50 mg/kg; conditions: Mus musculus
# P388 [4] = assay: Tested for in vivo antileukemic activity of compound against P388 at 25 mg/kg dose; NA means Not Active; assay type: functional, organism-based; set-up: dose 25 mg/kg; conditions: Mus musculus
smiles,measurement,setting,value
COc1ccc2c(c1)[C@@]1(C)CC[C@@H](O2)C12CC2,ED50,P388 [1],inactive
same,CC50,[2],26 µg/mL
same,ED50,P388 [3],inactive
same,ED50,P388 [4],inactive

# — ChEMBL document CHEMBL1121533, “Synthesis of 8-methoxy-15,16-dinor-6,8,10-trichothecatriene 12,13 alpha-epoxide and 12,13 beta-epoxide as potential antineoplastic agents” (J Med Chem, 1980)
